Patent publication US20140328847A1, “MITIGATION OF DISEASE BY INHIBITION OF GALECTIN-12” (The Regents of the University of California, priority 2011, published 2014)
Values belong to the compound of their own block, whether it stands above or below them.

Columns and labels:
[1] = system: adipocytes from Lgals12^+/+ and Lgals12^−/− mice; assay: Lipolysis assay in primary adipocytes from Lgals12+/+ and Lgals12−/− mice (glycerol release); assay type: cell-based, mouse; conditions: for lipolysis (glycerol release): 1 h, 37° C.; for cAMP/dbcAMP-stimulated lipolysis: in the presence of adenylyl cyclase inhibitor SQ 22536, FIG. 9G
Experimental: (A) Adipocytes from the epididymal fat depots of Lgals12^+/+ and Lgals12^-/- mice were incubated with indicated concentrations of isoproterenol before being separated into cytosol and fat cake. Lipolytic proteins in each fraction were analyzed by Western blotting with indicated antibodies. (B) Quantification of lipid droplet (LD)-associated p-HSL and HSL by densitometry of Western blots (n=3 for each genotype). […] (D) Quantification of LD-associated ATGL by densitometry of Western blots (n=3 for each genotype). […] Asterisks denote statistical significance (p<0.05). Results are representative of three experiments. FIGS. 10A-C illustrate (A) Adipocytes from Lgals12^+/+ and -/- mice (n=3) were incubated with 1 U/ml ADA and increasing concentrations of PIA for 1 h at 37° C. and glycerol release was measured. Results were expressed as both absolute values and as % of glycerol release in the absence of PIA. (B) Adipocytes from Lgals12+/+ and Lgals12^-/- mice (n=3 each) were incubated with or without 10 μM cilostamide (Cilo) or 25 μM rolipram (Roli), individually or in combination, for 2 h at 37° C. Lipolysis was determined by measuring glycerol release. (C) Insulin suppression of lipolysis in adipocytes stimulated with 20 nM isoproterenol (% of maximal release in the absence of insulin). Asterisks denote statistical significance (p<0.05). Similar results were obtained in three experiments. Adipocytes were isolated from gonadal fat depots in Krebs-Ringer HEPES (KRH) buffer by collagenase digestion and floatation ([…] Lipid Res 47:1859-1864). After the final wash, cell density and triglyceride content of the adipocyte suspension were determined as described (Fine […] (1997) Int J Obes Relat Metab Disord 21:764-768.). We monitored lipolysis in adipocytes isolated from random-fed Lgals12^+/+ and Lgals12^-/- mice on regular diet, by measuring fatty acid and glycerol release, as described ([…] Lipid Res 47:1859-1864), with minor modifications. Briefly, 2.5×10^5 cells were incubated in 0.3 ml KRH/3% FAA-free BSA (for basal lipolysis), or KRH/3% FAA-free BSA containing indicated concentrations of lipolysis stimulators or inhibitors (Sigma) for 0-2 h at 37° C. with shaking at 150 rpm. At the end of the incubation, glycerol and NEFA released into the infranatant was determined with the Free Glycerol Reagent (Sigma) and the Nonesterified Fatty Acids Kit ([…]), respectively.

galectin-12 [2] = biological target: T1, galectin-12 (Mus musculus, UniProt Q91VD1); assay: Association of galectin-12 with lipid droplets purified from mouse adipocyte homogenates; conditions: lactose 25 mM present during lipid droplet purification; FIG. 5B
T1 construct: from tissue; host or cells: primary mouse adipocytes from epididymal fat depot
T1 sequence (Q91VD1 1-314): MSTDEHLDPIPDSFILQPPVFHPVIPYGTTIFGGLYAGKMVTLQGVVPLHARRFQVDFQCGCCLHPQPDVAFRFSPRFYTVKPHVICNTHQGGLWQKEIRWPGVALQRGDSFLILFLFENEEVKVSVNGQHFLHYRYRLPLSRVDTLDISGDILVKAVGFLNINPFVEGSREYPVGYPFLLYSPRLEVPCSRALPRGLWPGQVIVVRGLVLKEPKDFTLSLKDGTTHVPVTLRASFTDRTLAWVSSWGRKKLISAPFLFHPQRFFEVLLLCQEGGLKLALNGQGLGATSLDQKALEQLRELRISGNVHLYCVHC
Experimental: (§1) FIGS. 5A-B illustrate association of galectin-12 with lipid droplets is not inhibited by lactose. (A) Mouse adipocytes from epididymal fat depot were lyzed and the lysates were incubated with fetuin-agarose, in the absence (−) or presence (+) of 25 mM lactose. Bound proteins were eluted with SDS-sample buffer and galectin-12 was detected by Western blotting. (B) Lipd droplets were purified from mouse adipocyte homogenates in the absence (−) or presence (+) of 25 mM lactose. Galectin-12 was detected as in (A).
(§2) To test whether galectin-12 association with lipid droplets is glycan-dependent, we also purified lipid droplets in the presence of lactose.

galectin-12 [3] = biological target: T1, galectin-12; assay: Binding of galectin-12 from mouse adipocyte lysates to fetuin-agarose (Western blotting); conditions: lactose 25 mM; mouse epididymal adipocyte lysates; FIG. 5A
Experimental: as §1, §2

Compound: CC(Cc1ccccc1)Nc1ncnc2c1ncn2[C@@H]1O[C@H](CO)[C@@H](O)[C@H]1O (single isomer, unassigned; (-)) [PIA, (−)-N6-(2-Phenylisopropyl)adenosine]
lipolysis (glycerol release) ([1]; increasing concentrations of PIA with 1 U/ml ADA, FIG. 10A): suppressed lipolysis in both genotypes with similar efficiencies

Compound: insulin
insulin suppression of lipolysis ([1]; Lgals12−/− adipocytes stimulated with 20 nM isoproterenol, FIG. 10C): remained sensitive

galectin-12 association with lipid droplets (galectin-12 [2]): did not affect
binding of galectin-12 to fetuin-agarose (galectin-12 [3]): completely inhibited
Compound: OC[C@H]1O[C@@H](O[C@H]2[C@H](O)[C@@H](O)C(O)O[C@@H]2CO)[C@H](O)[C@@H](O)[C@H]1O (stereo partly shown) [Lactose]

Compound: CC(C)Cn1c(=O)n(C)c(=O)c2[nH]cnc21 [IBMX, 3-isobutyl-1-methylxanthine]
lipolysis (glycerol release) ([1]; 0.1 mM IBMX, both Lgals12+/+ and Lgals12−/− adipocytes, FIG. 9F): greatly enhanced

Compound: CCCC(=O)Nc1ncnc2c1ncn2[C@@H]1O[C@@H]2COP(=O)(O)O[C@H]2[C@H]1OC(=O)CCC [dbcAMP, dibutyryl cAMP]
cAMP/dbcAMP-stimulated lipolysis [1]: induced comparable lipolysis in adipocytes of the two genotypes

Compound: Nc1ncnc2c1ncn2[C@@H]1O[C@@H]2COP(=O)(O)O[C@H]2[C@H]1O [cAMP, cyclic adenosine monophosphate]
cAMP/dbcAMP-stimulated lipolysis [1]: stimulated greater lipolysis in Lgals12^−/− adipocytes than in Lgals12^+/+ adipocytes
